Source: PubChem BioAssay (NCI)
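A five-concentration, 48-hour dose response in 96-well plates underlies each endpoint, interpolated linearly between surrounding concentrations. TGI denotes the concentration required for complete inhibition of growth.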

Key:
Test in all cases: NCI anticancer screen, dose series, 48 h
[1] = system: COLO 205 colon
[2] = system: DU-145 prostate
[3] = system: EKVX NSCLC
[4] = system: HCT-15 colon
[5] = system: HOP-92 NSCLC
[6] = system: HS 578T breast
[7] = system: MDA-MB-435
[8] = system: NCI/ADR-RES ovarian
[9] = system: RPMI-8226 leukemia
[10] = system: SNB-19 CNS

Compound	TGI [1]	TGI [2]	TGI [3]	TGI [4]	TGI [5]	TGI [6]	TGI [7]	TGI [8]	TGI [9]	TGI [10]
Cc1ccc([N+](=O)[O-])cc1S(=O)(=O)Nc1ccc(C2=NN(c3ccc([N+](=O)[O-])cc3[N+](=O)[O-])C(c3ccccc3)C2)cc1 (stereo not given)	37.4 µM	38.9 µM	34.6 µM	36.8 µM	35.9 µM	72 µM	47.4 µM	49.4 µM	> 100 µM	33 µM
c1ccc2c(-c3cnc(-c4c[nH]c5ccccc45)cn3)c[nH]c2c1	> 100 µM	> 100 µM	> 100 µM	> 100 µM	> 100 µM	> 100 µM	78.5 µM	> 100 µM	> 100 µM	> 100 µM
CC(C)(CO)CNc1cc(=O)[nH]c(N)n1	> 100 µM	> 100 µM	> 100 µM	> 100 µM	> 100 µM	> 100 µM	> 100 µM	> 100 µM	> 100 µM	> 100 µM
CC(=O)c1ccc(N=Nc2ccc3nonc3c2N)cc1	> 100 µM	> 100 µM	> 100 µM	> 100 µM	> 100 µM	> 100 µM	> 100 µM	> 100 µM	> 100 µM	> 100 µM
